The values that follow are results of earlier work, collected in patent US20230000073A1, “A COMPOSITION FOR ACTIVATING PLANT'S NATURAL DEFENSE MECHANISMS TO EXTEND THE SHELF LIFE AND METHODS THEREOF” (GREENPOD LABS PRIVATE LIMITED, priority 2019, published 2023).

Entries after “also recorded” stand apart in the source; their conditions may differ. Where two headings read alike, the source gives them in different places.

For `O=C(O)c1ccccc1O` [SA, 2-hydroxybenzoic acid], the “Reported results (effects of SA)” value with Watermelon is on record as “Increase in GPX, APX, CAT, SOD & GR activity,”; with Tomato, “Development of red color, regulation of ACS genes expression”; in the data set on Strawberry, “Decay, Ripenings, weight loss reduction”; in the data set with Apple it was “Decreased ethylene, LOX activity, MDA content, DI,”; in the data set with Apple (combined with microbial antagonist), “Enchaned the biological efficacy of antagonist”; in the data set with Kiwifruit it was “Inhibition of ethylene production, ripening &; also recorded: decay control”. The “Reported results (effects of SA)” value in the data set on Orange is “SOD, GR, APX & DHAR activity & ASA/DHASA”; with Fresh-cut Chestnut, “Delayed discoloration, maintained edible quality”; with Banana, “Decrease in fruit softening pulp/peel ratio, reducing sugar content,”; with Sweet cherry, “direct antifungal activity”.
